In patent US4672036A, “Pure cultures of Kibdelsporangium aridum Shearer gen. nov., sp. nov. ATCC 39323 and mutants thereof” (SmithKline Beckman Corporation, priority 1985, dated 1987):
In brackets after ≈: the same amount, converted by molar mass. Several values for one entry are separate records, joined by “and”; a condition that tells them apart may be missing. Equal values may be shown once. Read-outs that look alike come from different tables or passages of the source. Where a SMILES comes first, the peptide text is derived from it. Bridges are numbered along the chain shown (N, C = ends). [ ]: non-standard residue; d: D form. The star is where a group is joined. Ileψ(thiazoline)Cys = CC[C@H](C)[C@H](N)C1=N[C@H](C(=O)*)CS1; dOrn = NCCC[C@@H](N)C(=O)O

Legend:
[1] = test system: Strep. faecilis HH34358; format: cell-based; conditions: Table A
[2] = test system: Proteus mirabilis SK & F 444; format: cell-based; conditions: Table A
[3] = test system: E. coli 12140 (SK & F 809); format: cell-based
[4] = test system: Kleb. pneumoniae 4200 (SK & F 798); format: cell-based; conditions: Table A
[5] = test system: Pseudomonas aeruginosa HH63; format: cell-based; conditions: Table A
[6] = test system: Serratia marcesens ATCC 13880; format: cell-based; conditions: Table A
[7] = test system: Proteus morgani SK & F 179; format: cell-based; conditions: Table A
[8] = test system: Providencia SK & F 276; format: cell-based; conditions: Table A
[9] = test system: Enterobacter cloacae HH31254; format: cell-based; conditions: Table A
[10] = test system: Listeria monocytogenes SK & F 2255; format: cell-based; conditions: Table A
[11] = test system: Staph. aureus SK & F 2613; format: cell-based; conditions: Table B, Methicillin Sensitive
[12] = test system: Bacteroides fragilis ATCC 25285; format: cell-based; conditions: Table D, Anaerobes
[13] = test system: B. fragilis H145; format: cell-based, Bacteroides fragilis; conditions: Table D, Anaerobes
[14] = test system: B. fragilis SK & F 3060; format: cell-based, Bacteroides fragilis; conditions: Table D, Anaerobes
[15] = test system: B. loeochii SK & F 3087; format: cell-based; conditions: Table D, Anaerobes
[16] = test system: B. thetaiotamicron SK & F 3089; format: cell-based; conditions: Table D, Anaerobes
[17] = test system: Fusobacterium nucleatum ATCC 25586; format: cell-based; conditions: Table D, Anaerobes
[18] = test system: Swine in vitro model; experiment: swine in vitro model (growth promotant activity)
[19] = test system: rumen in vitro model; experiment: rumen in vitro model (growth promotant activity); design: species or system steer
Procedure: The protocol for the rumen in vitro model is analogous to the protocol for the swine in vitro model with the following modifications:
(1) A 400 kg steer is surgically prepared with a rumen cannula.
(2) The animal is fed one time a day with the following ration:
(3) Manipulation of VFA production is described as the production ratio of propionate as a percentage of total VFA produced.
(4) Sampling of the material, via the cannula, is at 120 minutes post feeding.

[20] = solubility; format: physicochemical
[21] = test system: Salmonella gallinarum BC595
[22] = test system: Clostridium perfringens MCP-1; conditions: Table D, Anaerobes
[23] = test system: C. perfringens MCP-2; conditions: Table D, Anaerobes
[24] = test system: rumen in vitro model; experiment: rumen in vitro model (growth promotant activity); design: species or system steer; remark: listed apart in the source
[25] = test system: Staph. aureus 209P-Mutant; experiment: microbe, parasite or virus in culture; format: cell-based; conditions: Table E
[26] = test system: Staph. aureus SK & F 674-P6 Mutant; experiment: microbe, parasite or virus in culture; format: cell-based; conditions: Table E
[27] = test system: Staph. epidermidis SK & F 2683; format: cell-based; conditions: Table E
[28] = test system: Staph. epidermidis SK & F 2265; format: cell-based; conditions: Table E
[29] = test system: Strep. faecalis SK & F 657; format: cell-based; conditions: Table E
[30] = test system: K. aridum; experiment: susceptibility of K. aridum to antibiotics, disk diffusion method; format: cell-based, Kibdelosporangium aridum
Procedure: Susceptibility of K. aridum to antibiotics was examined by placing BBL susceptibility disks on nutrient agar plates seeded with K. aridum as an overlay. Diameters of the zones of inhibition were measured after incubation for one week at 28° C.
Chlortetracycline ([…]) produced 18 mm zones of inhibition; tetracycline (5 μg) 11-12 mm zones; rifampin (5 μg) 11-15 mm zones; novobiocin (5 μg) 27-28 mm zones. All zones of inhibition contained at least a few resistant colonies.

[31] = H2O, methanol, dimethylsulfoxide, dimethylformamide
[32] = ethanol, acetonitrile, acetone, diethylether, aliphatic hydrocarbons

## CN[C@H]1C(=O)N[C@H]2C(=O)N[C@H](C(=O)N[C@H]3C(=O)N[C@H]4C(=O)N[C@H](C(=O)N[C@H](C(=O)O)c5cc(O)cc(O[C@H]6O[C@H](CO)[C@@H](O)[C@H](O)[C@@H]6O)c5-c5cc4ccc5O)[C@H](O)c4cc(Cl)c(c(Cl)c4)Oc4cc3cc(c4O[C@@H]3O[C@H](C(=O)O)[C@@H](O)[C@H](O)[C@H]3NC(=O)CCCCCCCCC(C)C)Oc3ccc(cc3Cl)[C@H]2O)c2cc(cc(O)c2Cl)Oc2cc1ccc2O
[1]
  MIC: 0.8 µg/mL (≈ 0.44 µM)
[2]
  MIC: > 100 µg/mL
[3]; Table A
  MIC: > 100 µg/mL
[4]
  MIC: > 100 µg/mL
[5]
  MIC: > 100 µg/mL
[6]
  MIC: > 100 µg/mL
[7]
  MIC: > 100 µg/mL
[8]
  MIC: > 100 µg/mL
[9]
  MIC: > 100 µg/mL
[10]
  MIC: ~ 0.4 μg/ml
[11]
  MIC: 1.6 µg/mL (≈ 0.88 µM)
[12]
  MIC: 32 µg/mL (≈ 17.6 µM)
[13]
  MIC: 8 µg/mL (≈ 4.4 µM)
[14]
  MIC: 16 µg/mL (≈ 8.8 µM)
[15]
  MIC: 4 µg/mL (≈ 2.2 µM)
[16]
  MIC: 32 µg/mL (≈ 17.6 µM)
[17]
  MIC: 32 µg/mL (≈ 17.6 µM)
[18]
  GLU (glucose): 191 % Control and 188 % Control and 96 % Control
[19]
  Propionate %: 120 % Control
  VFA (total of volatile fatty acids): 111 % Control
[20]; [31]
  solubility: soluble
[20]; [32]
  solubility: insoluble
[21]; Table A
  MIC: > 100 µg/mL
[22]
  MIC: ≤ 0.016 µg/mL
[23]
  MIC: ≤ 0.016 µg/mL
[24]
  LYS (lysine): 110 % Control and 103 % Control

## CCCCCCCCCC(=O)N[C@H]1[C@H](Oc2c3cc4cc2Oc2c(Cl)cc(cc2Cl)[C@@H](O)[C@@H]2NC(=O)[C@H](NC(=O)[C@@H]4NC(=O)[C@H]4NC(=O)[C@H](NC(=O)[C@H](NC)c5ccc(O)c(c5)Oc5cc(O)c(Cl)c4c5)[C@H](O)c4ccc(c(Cl)c4)O3)c3ccc(O)c(c3)-c3c(O[C@H]4O[C@H](CO)[C@@H](O)[C@H](O)[C@@H]4O)cc(O)cc3[C@@H](C(=O)O)NC2=O)O[C@H](C(=O)O)[C@@H](O)[C@@H]1O [AAD 216A]
[2]
  MIC: > 100 µg/mL
[3]; Table A
  MIC: > 100 µg/mL
[3]; Table E
  MIC: > 100 µg/mL
[4]
  MIC: > 100 µg/mL
[5]
  MIC: > 100 µg/mL
[6]
  MIC: > 100 µg/mL
[7]
  MIC: > 100 µg/mL
[8]
  MIC: > 100 µg/mL
[9]
  MIC: > 100 µg/mL
[12]
  MIC: 32 µg/mL (≈ 17.9 µM)
[14]
  MIC: 32 µg/mL (≈ 17.9 µM)
[16]
  MIC: > 32 µg/mL
[17]
  MIC: 32 µg/mL (≈ 17.9 µM)
[25]
  MIC: 100 µg/mL (≈ 55.9 µM)
[26]
  MIC: ~ 100 μg/ml
[27]
  MIC: 100 µg/mL (≈ 55.9 µM)
[28]
  MIC: 100 µg/mL (≈ 55.9 µM)
[29]
  MIC: 0.8 µg/mL (≈ 0.447 µM)
[18]
  GLU (glucose): 187 % Control and 191 % Control
  LYS (lysine): 63 % Control and 50 % Control and 94 % Control
[19]
  VFA (total of volatile fatty acids): 111 % Control and 94 % Control
[20]; [31]
  solubility: soluble
[20]; [32]
  solubility: insoluble
[21]; Table A
  MIC: > 100 µg/mL
[21]; Table E
  MIC: > 100 µg/mL
[24]
  LYS (lysine): 114 % Control

## CN(C)[C@@H]1C(O)=C(C(N)=O)C(=O)[C@@]2(O)C(O)=C3C(=O)c4c(O)ccc(Cl)c4[C@@](C)(O)[C@H]3C[C@@H]12 [Chlortetracycline]
[30]; Kibdelosporangium aridum, 168 h
  zone of inhibition at 5 µg/disc: 18 mm

## CC[C@@]1([C@H]2O[C@H]([C@H]3O[C@@](O)(CO)[C@H](C)C[C@@H]3C)C[C@H]2C)CC[C@H]([C@@]2(C)CC[C@]3(C[C@H](O)[C@@H](C)[C@@H]([C@H](C)[C@H](OC)[C@@H](C)C(=O)O)O3)O2)O1 [Monensin Sodium]
[19]
  Propionate %: 156 % Control and 149 % Control and 119 % Control
  VFA (total of volatile fatty acids): 104 % Control and 94 % Control
[24]
  LYS (lysine): 147 % Control and 141 % Control

## CC[C@H](C)[C@H](N)C1=N[C@H](C(=O)N[C@@H](CC(C)C)C(=O)N[C@H](CCC(=O)O)C(=O)N[C@H](C(=O)N[C@H]2CCCCNC(=O)[C@H](CC(N)=O)NC(=O)[C@@H](CC(=O)O)NC(=O)[C@H](Cc3cnc[nH]3)NC(=O)[C@@H](Cc3ccccc3)NC(=O)[C@H]([C@@H](C)CC)NC(=O)[C@@H](CCCN)NC2=O)[C@@H](C)CC)CS1 [bacitracin] ({Ileψ(thiazoline)Cys}-L[dE]IK[dOrn]I[dF]H[dD]N; lactam 4-C)
[30]; disk 2 units
  susceptibility of K. aridum: resistant

## CC(=O)OCC1=C(C(=O)O)N2C(=O)[C@@H](NC(=O)Cc3cccs3)[C@H]2SC1 [cephalothin]
[30]; disk 30 μg
  susceptibility of K. aridum: resistant

## CCC[C@@H]1C[C@@H](C(=O)N[C@@H]([C@H]2O[C@H](SC)[C@H](O)[C@@H](O)[C@H]2O)[C@H](C)Cl)N(C)C1 [clindamycin]
[30]; disk 2 μg
  susceptibility of K. aridum: resistant

## CCC[C@@H]1C[C@@H](C(=O)N[C@@H]([C@H]2O[C@H](SC)[C@H](O)[C@@H](O)[C@H]2O)[C@@H](C)O)N(C)C1 [lincomycin]
[30]; disk 2 μg
  susceptibility of K. aridum: resistant
